Data on 68 compounds can be found in the pKa sets of Baltruschat and Czodrowski (2020).

Take `C[NH+](C)CCC/N=C(\c1ccccc1)c1cccc2ccccc12`: under “basic group”, the pKa amounted to 4.16.

Where the note is “acidic group”, `Cc1cc(Cc2cc([N+](=O)[O-])ccc2O)cc(C)c1O` returned a pKa of 7.12.

`O=C(O)[C@H]1CCC[C@H](O)C1` came in with a pKa (acidic group) of 4.82.

With `Oc1cccc(O)c1`, where the note is “acidic group”, the pKa was 9.56.

For `O=C(O)c1ccc[n+]([O-])c1`, the pKa runs as follows: (acidic group) 2.95; (basic group) 0.41.

The compound `CN(C)/C=N/c1cccc(Br)c1` yielded a pKa (basic group) of 8.08.

`N#Cc1ccccn1` showed a pKa (basic group) of -0.26.

`O=C([O-])CNC(=O)CNS(=O)(=O)c1ccccc1` registered a pKa (acidic group) of 9.65.

Consider `CC(O)[C@@H]1C[C@H](CC(=O)O)C1(C)C` (stereo partly specified), for which the pKa (acidic group) amounted to 4.83.

Consider `N#CSc1ccc(O)cc1`, for which the pKa (acidic group) came out at 8.57.

In the case of `CN(C)c1ncccn1`, the pKa (basic group) is 3.96.

Under “acidic group”, `CC(=O)S` returned a pKa of 3.71.

The compound `COc1ccc(N)cc1Br` yielded a pKa (basic group) of 4.09.

Turning to `O=C(O)CCc1ccc([N+](=O)[O-])cc1`, the pKa (acidic group) worked out at 4.54.

Turning to `COc1cccc(C(=O)NC2CC3CCC(C2)N3Cc2ccccc2)c1OC` (stereo unspecified), the pKa (basic group) came out at 8.91.

The compound `N[C@H]1C[C@@H]2CCCC[C@H]2C[C@@H]1N` gave a pKa (basic group) of 9.97.

For `O=C(O)C(=O)c1ccccc1`, where the note is “acidic group”, the pKa was 1.22.

`CN(C)CCNCCN`: the pKa (basic group) came to 9.91.

With `NNC(=O)CS`, the pKa (acidic group) was 8.05.

For the compound `Nc1ccccc1NC(=O)c1ccc([N+](=O)[O-])cc1`, the pKa (basic group) amounted to 3.01.

With `c1ccc(CCNc2ncnc3[nH]ncc23)cc1`, the pKa (acidic group) was determined as 4.38.

Turning to `C1CCN(CC[NH+]2CCCCC2)CC1`, for the setting “basic group”, the pKa was 6.12.

For the compound `C#CCNN`, the pKa (basic group) was determined as 5.46.

Regarding `O=[N+]([O-])Cc1cccc(Cl)c1`, under “acidic group”, the pKa was 6.63.

`CCN(CC)CCSC` showed a pKa (basic group) of 9.62.

As to `O=[PH](O)C([NH2+]Cc1cccc[nH+]1)c1ccccc1O` (stereo unspecified), the pKa (acidic group) was determined as 2.4.

With `Cc1c[n+]([C@@H]2C[C@@H](O)[C@H](CO)O2)c(O)nc1N`, where the note is “acidic group”, the pKa is 4.4.

For the compound `O=C(O)CCCOC(=O)CCCBr`, the pKa (acidic group) stood at 4.6.

As for `CC(=S)Nc1ccc(Cl)cc1`, under “acidic group”, the pKa stood at 11.1.

As to `O=C(O)CSc1ccccc1[N+](=O)[O-]`, the pKa (acidic group) stood at 3.18.

As to `OCCCCNCl`, the pKa (basic group) is 1.49.

Regarding `N#CC(N)c1ccccc1` (stereo unspecified), the pKa (basic group) worked out at 4.4.

`CC1CCN(C)C(C)(C)C1` (stereo unspecified) yielded a pKa (basic group) of 10.2.

In turn, `C1CCN(C2CC[NH2+]CC2)CC1` returned a pKa (basic group) of 7.97.

Compound `Cc1cc(C)n(-c2cc(C)n(C)[nH+]2)n1` registered a pKa (basic group) of -2.9.

For the compound `CN(C)C(=O)n1nc(C(C)(C)C)nc1SCC(=O)O`, for the setting “acidic group”, the pKa was found to be 3.49.

In the case of `NC1=N[C@@H](CC(=O)[O-])C(=O)N1CCCC(N)C(=O)[O-]` (stereo partly specified), the pKa (basic group) was 9.55.

The compound `N#CCCN(CCC#N)c1nnn[nH]1` registered a pKa (acidic group) of 4.85.

As for `Nc1nc(N)[nH+]c(O)n1`, the pKa (acidic group) stood at 4.5.

Turning to `Nc1ncc2ncn([C@H]3O[C@@H](CO)[C@H](O)[C@@H]3O)c2n1`, the pKa (basic group) was 3.4.

For `O=C(O)Cc1c[nH]c2ccccc12`, under “acidic group”, the pKa turned out to be 4.39.

Consider `O=Cc1ncnc2nc[nH]c12`, for which the pKa reads like this: (acidic group) 8.8; (basic group) 2.4.

Turning to `Brc1ccccc1-c1nnn[nH]1`, where the note is “acidic group”, the pKa came to 3.83.

Where the note is “basic group”, `CN(C)CCC/N=C(\c1ccccc1)c1ccccc1O` displayed a pKa of 9.3.

Under “acidic group”, `O=[N+]([O-])Cc1ccccc1` displayed a pKa of 6.77.

Take `CCCCC/C(N)=N/N(C)C`: the pKa (basic group) came out at 10.4.

The compound `O=[PH]([O-])C([NH2+]Cc1ccccn1)c1ccccc1O` (stereo unspecified) gave a pKa (basic group) of 3.25.

`CCNc1ccc(C)cc1`: for the setting “basic group”, the pKa stood at 5.72.

For `C=CCNc1ccccc1`, the pKa (basic group) came to 4.17.

Compound `CCCCCCCCCCN(CC(C)O)CC(O)CC` (stereo unspecified) yielded a pKa (basic group) of 6.7.

Turning to `Cn1nnnc1N`, the pKa (basic group) is 1.82.

Take `Cc1n[nH]c(O)c1-c1ccccc1`: the pKa (acidic group) was 11.4.

As to `NC12CCC(C1)C2`, the pKa (basic group) is 9.3.

Compound `CC(C)C(O[C@H]1O[C@@H](C(=O)O)[C@H](O)[C@@H](O)[C@@H]1O)C(C)C` displayed a pKa (acidic group) of 3.89.

Compound `CONC(=O)c1ccccc1` showed a pKa (acidic group) of 8.89.

On to `CN(C)CCC/N=C(\c1ccccc1)c1ccc2ccccc2c1`, for which the pKa (basic group) came out at 9.2.

On to `O=C([O-])c1c(O)ccc2ccccc12`, for which the pKa (acidic group) was determined as 10.9.

`Cc1cc(O)c(C(C)C)cc1Cl` yielded a pKa (acidic group) of 9.98.

For `Fc1cccc(NC(=S)c2cccc(Br)c2)c1`, for the setting “acidic group”, the pKa was determined as 10.

Consider `FC(F)(F)c1nc2ncncc2[nH]1`, for which the pKa runs as follows: (acidic group) 5.12; (basic group) 1.

As to `CN(C)CCC(c1ccccc1)c1ccccn1` (stereo unspecified), the pKa (basic group) stood at 9.29.

Consider `COc1ccc(OC)nn1`, for which, for the setting “basic group”, the pKa was 1.61.

`CC(N)C/C(N)=N/O` (stereo unspecified): the pKa (basic group) amounted to 9.15.

For `Nc1nc(N)nc(Nc2ccccc2)n1`, where the note is “basic group”, the pKa was determined as 4.65.

In turn, `C=CCOc1nc(N)nc(N)n1` came in with a pKa (basic group) of 3.43.

With `Nc1ccc2c(c1)-c1c(ccc3ccccc13)C2`, the pKa (basic group) is 4.67.

`C[C@@H]1CC[C@H](C)[C@@H]1C(=O)O` showed a pKa (acidic group) of 5.4.

Consider `Oc1c(Cl)ccc(Cl)c1Cl`, for which, under “acidic group”, the pKa worked out at 6.12.
